The source of these data is ChEMBL document CHEMBL1150766, “Synthesis and in vitro biological activity of retinyl retinoate, a novel hybrid retinoid derivative” (Bioorg Med Chem, 2008).

As usually defined, the IC50 is the concentration that inhibits the measured activity by half.

The source made the active and inactive calls. The rule behind the calls is not given here.

Data set [1] can be described thus: Photostability after UV irradiation. It is filed as physicochemical.
Data set [2] in a line: Thermal stability at 4 degC after 4 weeks. It is filed as physicochemical. The note with it: 672 h.
Data set [3] can be described thus: Thermal stability at 40 degC after 4 weeks. It is filed as physicochemical. The note with it: 672 h.
Data set [4] can be described thus: Cytotoxicity against human normal fibroblast after 1 day by MTT assay. It is filed as cell-based. The following applies: 24 h. Background: Tetrazolium assays rely on reduction of a dye to a coloured formazan, in cell work by metabolically active cells.
The test system of data set [5] is HaCaT. The experiment in a line: Decrease in collagenase expression in Coll-CAT gene transfected human HaCaT cells co-transfected with c-Jun relative to control. It is filed as functional.
Data set [6] concerns HaCaT. Nature of the data set: Decrease in collagenase expression in Coll-CAT gene transfected human HaCaT cells co-transfected with c-Jun and retinoic acid receptor relative to control. The data set is classed as functional.
For data set [7], the system named is Fibroblast. Nature of the data set: Induction of CRABP 2 mRNA expression in human normal fibroblast at 1 uM by […] relative to control. The data set is classed as functional. (In general: In western blotting, separated proteins are transferred to a membrane and probed.)
Data set [8] deals with Fibroblast. The experiment in a line: Induction of CRABP 2 mRNA expression in human normal fibroblast at 10 uM by […] relative to control. The data set is classed as functional.
For data set [9], the target named is T1, Retinoic acid receptor alpha (Homo sapiens) (UniProt P10276).
T1 sequence (whole entry): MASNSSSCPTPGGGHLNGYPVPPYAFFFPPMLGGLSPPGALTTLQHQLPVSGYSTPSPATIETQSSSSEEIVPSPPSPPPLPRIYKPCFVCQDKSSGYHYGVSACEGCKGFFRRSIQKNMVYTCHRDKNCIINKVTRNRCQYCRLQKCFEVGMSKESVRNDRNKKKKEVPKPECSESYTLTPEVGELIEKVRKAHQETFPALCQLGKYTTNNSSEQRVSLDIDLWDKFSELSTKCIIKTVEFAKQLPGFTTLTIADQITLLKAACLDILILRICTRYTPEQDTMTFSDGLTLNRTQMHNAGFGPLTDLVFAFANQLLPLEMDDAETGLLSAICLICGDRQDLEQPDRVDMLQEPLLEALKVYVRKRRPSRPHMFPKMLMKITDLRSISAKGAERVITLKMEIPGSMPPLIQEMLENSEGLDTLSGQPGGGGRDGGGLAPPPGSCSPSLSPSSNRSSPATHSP
The experiment in a line: Increase in transcriptional activity of RARalpha receptor epressed in human HaCaT cells co-transfected with DR5-tk-CAT reporter plasmid assessed as beta-galactosidase activity by CAT-ELISA. It is filed as cell-based. In general terms: ELISA stands for enzyme-linked immunosorbent assay.

Data set [10] can be described thus: Stability in human fibroblasts assessed as retention time after 2 days. It is filed as ADME, cell-based. The following applies: fibroblast, 48 h.
The subject of data set [11] is Fibroblast. Nature of the data set: Induction of collagen biosynthesis in human normal fibroblast. It is filed as functional, cell-based.
The target of data set [12] is Transcription factor Jun (Homo sapiens) (UniProt P05412). Nature of the data set: Inhibition of AP1 expressed in human HaCaT cells transfected with Coll-CAT reporter gene assessed as collagenase expression by CAT-ELISA. It is filed as cell-based.
Chain of Transcription factor Jun (Homo sapiens) (P05412 whole entry): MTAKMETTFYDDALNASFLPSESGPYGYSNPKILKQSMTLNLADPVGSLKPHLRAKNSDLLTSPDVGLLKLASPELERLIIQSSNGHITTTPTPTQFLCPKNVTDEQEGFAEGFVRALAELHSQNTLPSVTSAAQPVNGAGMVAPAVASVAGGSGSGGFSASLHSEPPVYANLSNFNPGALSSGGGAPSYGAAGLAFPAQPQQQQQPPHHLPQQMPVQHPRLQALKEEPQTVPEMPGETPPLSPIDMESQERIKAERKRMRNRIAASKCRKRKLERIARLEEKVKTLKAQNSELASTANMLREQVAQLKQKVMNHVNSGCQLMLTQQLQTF

Take `CC1=C(/C=C/C(C)=C/C=C/C(C)=C/CO)C(C)(C)CCC1` [RETINOL]: the Activity entry in [1] is reported as “Not Active”; in data set [3], “Not Active”; in data set [7], 1.4; in data set [8], 1.44. Further, in data set [2], the Stability result was “Stable”. The IC50 in data set [4] was 25 µM. In addition, the “inhibition (INH)” value in data set [5] is 7.3%; in data set [6], 33%. Also, in data set [9], the result was Active.
Turning to `CC1=C(/C=C/C(C)=C/C=C/C(C)=C/COC(=O)/C=C(C)/C=C/C=C(C)/C=C/C2=C(C)CCCC2(C)C)C(C)(C)CCC1` [RETINYLRETINOATE], the Activity in [10] is listed as 18.94 min; in data set [7] it was 1.56; in data set [8] it was 1.75. Besides, the Stability entry in data set [1] and in [2] was “Stable” throughout. Further, it took 40 µM to reach half-maximal inhibition in data set [4] (IC50). In addition, the “inhibition (INH)” value in data set [5] was 6.7%; in [6] it was 52%. Moreover, the result in [11], in [9] and in [12] was Active.
As to `CC1=C(/C=C/C(C)=C/C=C/C(C)=C/C(=O)O)C(C)(C)CCC1` [TRETINOIN], the entries for the “inhibition (INH)” value in [5] and in data set [6] were 5.4% and 64%, respectively. The Activity is listed as 1.84 in [7] and 2.05 in data set [8].
Turning to `CCCCCCCCCCCCCCCC(=O)OC/C=C(C)/C=C/C=C(C)/C=C/C1=C(C)CCCC1(C)C` [VITAMIN A PALMITATE], the Activity in [7] is 1.2; in data set [8], 1.4.
